# Data taken from patent publication EP0182135A2, “Novel bis-(substituted amino) anthraquinones” (AMERICAN CYANAMID COMPANY, priority 1984, dated 1986).
# Where a name gives a salt, the structure may show the parent alone.
# Key:
# melanotic melanoma B16 = experiment: Melanotic Melanoma B16 Test; format: in vivo, C57BC/6 mice
# Protocol: The animals used were C57BC/6 mice, all of the same sex, weighing a minimum of 17 g and all within a 3 g weight range. There were normally 10 animals per test group. A 1.0 g portion of melanotic melanoma B16 tumor was homogenized in 10 ml of cold balanced salt solution and a 0.5 ml aliquot of the homogenate was implanted intraperitoneally into each of the test mice. The test compounds were administered intraperitoneally on days one through nine (relative to tumor inoculation) at various doses. The animals were weighed and survivors recorded on a regular basis for 60 days. The median survival time and the ratio of survival time for treated (T)/control (C) animals were calculated. The positive control compound was 1,4-dihydroxy-5,8-bis[[2-(2-hydroxyethylamino)-ethyl]amino]anthraquinone, dihydrochloride (U.S. Patent 4,197,249) given at the indicated doses by injection.
# [1] = system: lymphocytic leukemia P388; experiment: Lymphocytic Leukemia P388 Test; format: in vivo, DBA/2 mice
# Protocol: Lymphocytic Leukemia P388 Test
# The animals used were DBA/2 mice all of one sex, weighing a minimum of 17 g and all within a 3 g weight range. There were 5 or 6 animals per test group. The tumor transplant was by intraperitoneal injection of 0.1 ml of dilute ascitic fluid containing 10^6 cells of lymphocytic leukemia P388. The test compounds were administered intraperitoneally on days 1, 5 and 9 (relative to tumor inoculation) at various doses. The animals were weighed and survivors were recorded on a regular basis for 30 days. The median survival time and the ratio of survival time for treated (T)/control (C) animals were calculated. The positive control compound was 1,4-dihydroxy-5,8-bis--[ [2-(2-hydroxyethylamino)ethyl ]amino]anthraquinone, dihydrochloride (U.S. Patent 4,197,249) given at the indicated doses by injection.
# [2] = Dose 0.8 mg/kg intraperitoneally on days one through nine
# [3] = Dose 3 mg/kg intraperitoneally on days one through nine
# [4] = Dose 12 mg/kg intraperitoneally on days one through nine
# [5] = Dose 3 mg/kg intraperitoneally on days 1, 5 and 9, dihydrochloride, 3 mg/kg
# [6] = Dose 12 mg/kg intraperitoneally on days 1, 5 and 9, dihydrochloride, 12 mg/kg
# [7] = Dose 50 mg/kg intraperitoneally on days 1, 5 and 9, dihydrochloride, 50 mg/kg
# [8] = Dose 50 mg/kg intraperitoneally on days one through nine
# [9] = Dose 3 mg/kg intraperitoneally on days 1, 5 and 9
# [10] = Dose 12 mg/kg intraperitoneally on days 1, 5 and 9
# [11] = Dose 50 mg/kg intraperitoneally on days 1, 5 and 9
# [12] = Dose 200 mg/kg intraperitoneally on days 1, 5 and 9
# [13] = Dose 1.5 mg/kg intraperitoneally on days one through nine
# [14] = Dose 6 mg/kg intraperitoneally on days one through nine
# [15] = Dose 25 mg/kg intraperitoneally on days one through nine
# [16] = Dose 100 mg/kg intraperitoneally on days one through nine
# [17] = Dose 0.2 mg/kg intraperitoneally on days 1, 5 and 9
# [18] = Dose 0.8 mg/kg intraperitoneally on days 1, 5 and 9
Compound,Median Survival (melanotic melanoma B16; [2]),T/C x 100 (%) (melanotic melanoma B16; [2]),Median Survival (melanotic melanoma B16; [3]),T/C x 100 (%) (melanotic melanoma B16; [3]),Median Survival (melanotic melanoma B16; [4]),T/C x 100 (%) (melanotic melanoma B16; [4]),"Median Survival [1, 9]","T/C x 100 (%) [1, 9]","Median Survival [1, 10]","T/C x 100 (%) [1, 10]","Median Survival [1, 11]","T/C x 100 (%) [1, 11]",also measured
"CN(C)CCCNC(=S)N(CCO)CCNc1ccc(NCCN(CCO)C(=S)NCCCN(C)C)c2c1C(=O)c1c(O)ccc(O)c1C2=O [N,N""-[(9,10-Dihydro-5,8-dihydroxy-9,10-dioxo-1,4-anthracenediyl)bis(imino-2,1-ethanediyl)]bis[N'-[3-(dimethylamino)propyl]-N-(2-hydroxyethyl)]thiourea, dihydrochloride]",24.5 days,114%,33.5 days,156%,>60 days,>279%,,,,,,,"Median Survival [1, 5]: 15 days; T/C x 100 (%) [1, 5]: 136%; Median Survival [1, 6]: 19.5 days; T/C x 100 (%) [1, 6]: 177%; Median Survival [1, 7]: 22.5 days; T/C x 100 (%) [1, 7]: 205%"
"COC(=O)C(=O)NCCNc1ccc(NCCNC(=O)C(=O)OC)c2c1C(=O)c1c(O)ccc(O)c1C2=O [2,2[(9-10-Dihydro-5,8-dihydroxy-9,10-dioxo-1,4-anthracenediyl)bis(imino-2,1-ethanediylimino)]-bis[2-oxoacetic acid]dimethyl ester]",23.5 days,155%,26.5 days,129%,31.5 days,154%,16 days,145%,19.5 days,177%,20.5 days,186%,"Median Survival (melanotic melanoma B16; [8]): >60 days; T/C x 100 (%) (melanotic melanoma B16; [8]): >293%; Median Survival [1, 12]: 23 days; T/C x 100 (%) [1, 12]: 209%"
"CCOC(=O)NCCNc1ccc(NCCNC(=O)OCC)c2c1C(=O)c1c(O)ccc(O)c1C2=O [[(9,10-Dihydro-5,8-dihydroxy-9,10-dioxo-1,4 anthracenediyl)bis(imino-2,1-ethanediyl)]bis-[carbamic acid]diethyl ester]",,,,,,,17 days,170%,21 days,210%,21.5 days,215%,"Median Survival (melanotic melanoma B16; [13]): 29.5 days; T/C x 100 (%) (melanotic melanoma B16; [13]): 156%; Median Survival (melanotic melanoma B16; [14]): 39.5 days; T/C x 100 (%) (melanotic melanoma B16; [14]): 209%; Median Survival (melanotic melanoma B16; [15]): >60 days; T/C x 100 (%) (melanotic melanoma B16; [15]): >317%; Median Survival (melanotic melanoma B16; [16]): 38.5 days; T/C x 100 (%) (melanotic melanoma B16; [16]): 204%; Median Survival [1, 17]: 11 days; T/C x 100 (%) [1, 17]: 110%; Median Survival [1, 18]: 14 days; T/C x 100 (%) [1, 18]: 140%"
